These results are taken from patent US11771738B2 (Zoetis Services LLC, priority 2018, dated 2023).

Holding throughout (format): cell-based
One test relates to D. immitis L4 larvae. The experiment in a line: Dirofilaria immitis, L4 Stage (DiL4) In Vitro Assay. The settings on record: for minimal effective concentration: Dirofilaria immitis, 72 h, read-out: DiL4 MED, Minimum Effective Dose, D. immitis L4 larvae motility, in vitro; for DiMf/DiL4: larval stage selectivity, ratio of DiMf MED to DiL4 MED.
In test [1] the test system is microfilariae of Dirofilaria immitis. The experiment in a line: Dirofilaria immitis, Microfilaria (DiMf) In Vitro Assay. The settings on record: Dirofilaria immitis, 72 h, read-out: DiMf MED, Minimum Effective Dose, D. immitis microfilariae motility, in vitro.
Test [2] concerns third stage larvae of Haemonchus contortus. The test is described as follows: Haemonchus contortus, Larvae Stage 3 (HcL3) In Vitro Assay. The settings on record: for minimal effective concentration: Haemonchus contortus, 96 h; for HcL3 MED (symbol after Ex#): approximately 96 hours incubation.
The mark [3] stands for this setting: read-out: HcL3 MED, Haemonchus contortus third stage larvae in vitro, class mark appended to the Ex # in Table 3.
Setting [4] is: read-out: HcL3 MED, Minimum Effective Dose, H. contortus third stage larvae, approximately 96 hours.
The mark [5] stands for this setting: read-out: HcL3 MED, approximately 96 hours incubation, multiple-resistant field isolate.
Setting [6] is: multiple-resistant field isolate.

Read-outs that look alike come from different tables or passages of the source. Marks after values point to notes of the source that are not given here.

Regarding `CSc1ncccc1Cc1ccc(C[C@H]2OC(=O)[C@H](CC(C)C)N(C)C(=O)[C@@H](C)OC(=O)[C@H](CC(C)C)N(C)C(=O)[C@@H](Cc3ccc(Cc4cccnc4SC)cc3)OC(=O)[C@H](CC(C)C)N(C)C(=O)[C@@H](C)OC(=O)[C@H](CC(C)C)N(C)C2=O)cc1` [Example 3-308, (3S,6R,9S,12R,15S,18R,21S,24R)-3,9,15,21-tetraisobutyl-4,6,10,16,18,22-hexamethyl-12,24-bis(4-((2-(methylthio)pyridin-3-yl)methyl)benzyl)-1,7,13,19-tetraoxa-4,10,16,22-tetraazacyclotetracosan-2,5,8,11,14,17,20,23-octaone], the minimal effective concentration is 0.001 µM in the test with D. immitis L4 larvae, 0.01 µM in test [1], 1 to 3.3 µM in test [2] (setting [3]) and 3.3 µM in test [2] (setting [4]). In addition, in the test with D. immitis L4 larvae, the DiMf/DiL4 was 10.
Consider `Cc1c[nH]c(C)c1Cc1ccc(C[C@H]2OC(=O)[C@H](CC(C)C)N(C)C(=O)[C@@H](C)OC(=O)[C@H](CC(C)C)N(C)C(=O)[C@@H](Cc3ccccc3)OC(=O)[C@H](CC(C)C)N(C)C(=O)[C@@H](C)OC(=O)[C@H](CC(C)C)N(C)C2=O)cc1` [Example 4-19, (3S,6R,9S,12R,15S,18R,21S,24R)-6-benzyl-18-(4-((2,4-dimethyl-1H-pyrrol-3-yl)methyl)benzyl)-3,9,15,21-tetraisobutyl-4,10,12,16,22,24-hexamethyl-1,7,13,19-tetraoxa-4,10,16,22-tetraazacyclotetracosan-2,5,8,11,14,17,20,23-octaone], for which the minimal effective concentration in the test with D. immitis L4 larvae was 0.001 µM; in test [1] it was 0.1 µM; in test [2] (setting [4]), more than 10 µM. The DiMf/DiL4 in the test with D. immitis L4 larvae is 100.
For `CC(C)C[C@H]1C(=O)O[C@H](Cc2ccc(Cc3sccc3Br)cc2)C(=O)N(C)[C@@H](CC(C)C)C(=O)O[C@H](C)C(=O)N(C)[C@@H](CC(C)C)C(=O)O[C@H](Cc2ccc(Cc3sccc3Br)cc2)C(=O)N(C)[C@@H](CC(C)C)C(=O)O[C@H](C)C(=O)N1C` [Example 3-125, (3S,6R,9S,12R,15S,18R,21S,24R)-6,18-bis(4-((3-bromothiophen-2-yl)methyl)benzyl)-3,9,15,21-tetraisobutyl-4,10,12,16,22,24-hexamethyl-1,7,13,19-tetraoxa-4,10,16,22-tetraazacyclotetracosan-2,5,8,11,14,17,20,23-octaone] the same measures were less than 0.0002 µM, 0.03 µM, more than 100 µM and more than 150.
Consider `CC(C)C[C@H]1C(=O)O[C@H](Cc2ccc(Cc3cccnc3Cl)cc2)C(=O)N(C)[C@@H](CC(C)C)C(=O)O[C@H](C)C(=O)N(C)[C@@H](CC(C)C)C(=O)O[C@H](Cc2ccc(Cc3cccnc3Cl)cc2)C(=O)N(C)[C@@H](CC(C)C)C(=O)O[C@H](C)C(=O)N1C` [Example 3-319, (3S,6R,9S,12R,15S,18R,21S,24R)-6,18-bis(4-((2-chloropyridin-3-yl)methyl)benzyl)-3,9,15,21-tetraisobutyl-4,10,12,16,22,24-hexamethyl-1,7,13,19-tetraoxa-4,10,16,22-tetraazacyclotetracosan-2,5,8,11,14,17,20,23-octaone], for which the minimal effective concentration was 5.5e-05 µM in the test on D. immitis L4 larvae; 0.00173 µM in test [1]; less than 1 µM in test [2] (setting [3]); 0.55 µM in test [2] (setting [4]); not above 1 µM in test [2] (setting [5]). In addition, the DiMf/DiL4 in the test on D. immitis L4 larvae is 31.5.
On to `CC(C)C[C@H]1C(=O)O[C@H](Cc2ccc(Cc3snnc3C(C)C)cc2)C(=O)N(C)[C@@H](CC(C)C)C(=O)O[C@H](C)C(=O)N(C)[C@@H](CC(C)C)C(=O)O[C@H](Cc2ccc(Cc3snnc3C(C)C)cc2)C(=O)N(C)[C@@H](CC(C)C)C(=O)O[C@H](C)C(=O)N1C` [Example 3-228, (3S,6R,9S,12R,15S,18R,21S,24R)-3,9,15,21-tetraisobutyl-6,18-bis(4-((4-isopropyl-1,2,3-thiadiazol-5-yl)methyl)benzyl)-4,10,12,16,22,24-hexamethyl-1,7,13,19-tetraoxa-4,10,16,22-tetraazacyclotetracosan-2,5,8,11,14,17,20,23-octaone], for which the minimal effective concentration in the test with D. immitis L4 larvae was 0.0005 µM; in test [1], 0.01 µM; in test [2] (setting [4]), more than 100 µM. Further, the DiMf/DiL4 with D. immitis L4 larvae is 20.
On to `Cc1cc(Cc2ccc(C[C@H]3OC(=O)[C@H](CC(C)C)N(C)C(=O)[C@@H](C)OC(=O)[C@H](CC(C)C)N(C)C(=O)[C@@H](Cc4ccc(Cc5cc(C)nn5C)cc4)OC(=O)[C@H](CC(C)C)N(C)C(=O)[C@@H](C)OC(=O)[C@H](CC(C)C)N(C)C3=O)cc2)n(C)n1` [Example 3-49, (3S,6R,9S,12R,15S,18R,21S,24R)-6,18-bis(4-((1,3-dimethyl-1H-pyrazol-5-yl)methyl)benzyl)-3,9,15,21-tetraisobutyl-4,10,12,16,22,24-hexamethyl-1,7,13,19-tetraoxa-4,10,16,22-tetraazacyclotetracosan-2,5,8,11,14,17,20,23-octaone], for which the minimal effective concentration is 0.001 µM with D. immitis L4 larvae, 0.005 µM in test [1], 1 to 3.3 µM in test [2] (setting [3]) and 3.3 µM in test [2] (setting [4]). The DiMf/DiL4 in the test on D. immitis L4 larvae is 5.
Turning to `CC(C)C[C@H]1C(=O)O[C@H](Cc2ccc(Cc3ccsc3)cc2)C(=O)N(C)[C@@H](CC(C)C)C(=O)O[C@H](C)C(=O)N(C)[C@@H](CC(C)C)C(=O)O[C@H](Cc2ccc(Cc3ccsc3)cc2)C(=O)N(C)[C@@H](CC(C)C)C(=O)O[C@H](C)C(=O)N1C` [Example 3-56, (3S,6R,9S,12R,15S,18R,21S,24R)-3,9,15,21-tetraisobutyl-4,6,10,16,18,22-hexamethyl-12,24-bis(4-(thiophen-3-ylmethyl)benzyl)-1,7,13,19-tetraoxa-4,10,16,22-tetraazacyclotetracosan-2,5,8,11,14,17,20,23-octaone], the minimal effective concentration in the test on D. immitis L4 larvae was 0.0005 µM; in test [1], 0.1 µM; in test [2] (setting [3]), less than 1 µM; in test [2] (setting [4]), 0.5 µM; in test [2] (setting [5]) it was not above 1 µM. For the same compound, the DiMf/DiL4 in the test with D. immitis L4 larvae is 200.
As to `Cc1cnsc1Cc1ccc(C[C@H]2OC(=O)[C@H](CC(C)C)N(C)C(=O)[C@@H](C)OC(=O)[C@H](CC(C)C)N(C)C(=O)[C@@H](Cc3ccc(Cc4sncc4C)cc3)OC(=O)[C@H](CC(C)C)N(C)C(=O)[C@@H](C)OC(=O)[C@H](CC(C)C)N(C)C2=O)cc1` [Example 3-288, (3S,6R,9S,12R,15S,18R,21S,24R)-3,9,15,21-tetraisobutyl-4,6,10,16,18,22-hexamethyl-12,24-bis(4-((4-methylisothiazol-5-yl)methyl)benzyl)-1,7,13,19-tetraoxa-4,10,16,22-tetraazacyclotetracosan-2,5,8,11,14,17,20,23-octaone], the “DiL4 MED” value in the test with D. immitis L4 larvae (Minimum Effective Dose, D. immitis L4 larvae motility, in vitro, listed as (3-288)) is listed as 0.1 nM. Besides, the DiMf/DiL4 in the test with D. immitis L4 larvae (listed as (3-288)) was 30. In addition, the minimal effective concentration in test [2] (setting [3]) was less than 1 µM; in test [2] (setting [5]), not above 1 µM. The “HcL3 MED” value in test [2] (Minimum Effective Dose, H. contortus third stage larvae, approximately 96 hours, listed as (3-288)) was 0.2 µM.
On to `COc1ncc(Cl)cc1Cc1ccc(C[C@H]2OC(=O)[C@H](CC(C)C)N(C)C(=O)[C@@H](C)OC(=O)[C@H](CC(C)C)N(C)C(=O)[C@@H](Cc3ccc(Cc4cc(Cl)cnc4OC)cc3)OC(=O)[C@H](CC(C)C)N(C)C(=O)[C@@H](C)OC(=O)[C@H](CC(C)C)N(C)C2=O)cc1` [Example 3-332, (3S,6R,9S,12R,15S,18R,21S,24R)-6,18-bis(4-((5-chloro-2-methoxypyridin-3-yl)methyl)benzyl)-3,9,15,21-tetraisobutyl-4,10,12,16,22,24-hexamethyl-1,7,13,19-tetraoxa-4,10,16,22-tetraazacyclotetracosan-2,5,8,11,14,17,20,23-octaone], for which, in the test on D. immitis L4 larvae, the minimal effective concentration stood at 0.0005 µM and the DiMf/DiL4 stood at 548. Also, the minimal effective concentration in test [1] turned out to be 0.3 µM.
For `CC(C)C[C@H]1C(=O)O[C@H](Cc2ccc(Cc3ccsn3)cc2)C(=O)N(C)[C@@H](CC(C)C)C(=O)O[C@H](C)C(=O)N(C)[C@@H](CC(C)C)C(=O)O[C@H](Cc2ccccc2)C(=O)N(C)[C@@H](CC(C)C)C(=O)O[C@H](C)C(=O)N1C` [Example 4-36], the “HcL3 MED (symbol after Ex#)” value in test [2] (setting [6]) is 4-36^ (Examples with a carrot (^) have HcL3 MED values>1 and ≤3.3 μM).
For `Cc1cnc(Cc2ccc(C[C@H]3OC(=O)[C@H](CC(C)C)N(C)C(=O)[C@@H](C)OC(=O)[C@H](CC(C)C)N(C)C(=O)[C@@H](Cc4ccccc4)OC(=O)[C@H](CC(C)C)N(C)C(=O)[C@@H](C)OC(=O)[C@H](CC(C)C)N(C)C3=O)cc2)s1` [Example 4-94], the “HcL3 MED (symbol after Ex#)” value in test [2] (setting [6]) was 4-94^ (Examples with a carrot (^) have HcL3 MED values>1 and ≤3.3 μM).
For the compound `CC(C)C[C@H]1C(=O)O[C@H](Cc2ccc(Cc3nncs3)cc2)C(=O)N(C)[C@@H](CC(C)C)C(=O)O[C@H](C)C(=O)N(C)[C@@H](CC(C)C)C(=O)O[C@H](Cc2ccc(Cc3nncs3)cc2)C(=O)N(C)[C@@H](CC(C)C)C(=O)O[C@H](C)C(=O)N1C` [Example 3-14], the “HcL3 MED” value in test [2] (Haemonchus contortus third stage larvae in vitro, class mark appended to the Ex # in Table 3) is 3-14* (Examples with an asterisk (*) have HcL3 MED values≤1 μM).
